{
  "source": "paper PMC9959456",
  "about": "“Multiple-P450 Gene Co-Up-Regulation in the Development of Permethrin Resistance in the House Fly, Musca domestica” (International Journal of Molecular Sciences, 2023)",
  "key": {"[1]": {"target": "T1, CYP4S24 (Musca domestica, UniProt T1PEC4)", "T1 construct": "full length, co-expressed with house fly CPR (MOI 10:1) by baculovirus in Sf9 cells; microsomes; with NADPH--cytochrome P450 reductase", "T1 sequence (T1PEC4 1-496)": "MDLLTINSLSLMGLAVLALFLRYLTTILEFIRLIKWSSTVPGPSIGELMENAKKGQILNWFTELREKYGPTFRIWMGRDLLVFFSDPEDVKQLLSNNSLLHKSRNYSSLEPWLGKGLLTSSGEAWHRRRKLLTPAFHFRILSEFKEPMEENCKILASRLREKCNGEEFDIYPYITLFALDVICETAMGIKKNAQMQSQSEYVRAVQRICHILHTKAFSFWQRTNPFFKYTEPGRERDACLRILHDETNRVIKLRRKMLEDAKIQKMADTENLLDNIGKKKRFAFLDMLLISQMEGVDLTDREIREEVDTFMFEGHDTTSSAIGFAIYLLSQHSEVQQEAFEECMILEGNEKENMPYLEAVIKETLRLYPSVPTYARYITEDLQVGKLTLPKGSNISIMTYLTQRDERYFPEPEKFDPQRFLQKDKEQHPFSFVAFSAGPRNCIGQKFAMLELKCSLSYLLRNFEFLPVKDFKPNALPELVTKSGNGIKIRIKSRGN", "T1 sequence (Q07994 1-671 partner)": "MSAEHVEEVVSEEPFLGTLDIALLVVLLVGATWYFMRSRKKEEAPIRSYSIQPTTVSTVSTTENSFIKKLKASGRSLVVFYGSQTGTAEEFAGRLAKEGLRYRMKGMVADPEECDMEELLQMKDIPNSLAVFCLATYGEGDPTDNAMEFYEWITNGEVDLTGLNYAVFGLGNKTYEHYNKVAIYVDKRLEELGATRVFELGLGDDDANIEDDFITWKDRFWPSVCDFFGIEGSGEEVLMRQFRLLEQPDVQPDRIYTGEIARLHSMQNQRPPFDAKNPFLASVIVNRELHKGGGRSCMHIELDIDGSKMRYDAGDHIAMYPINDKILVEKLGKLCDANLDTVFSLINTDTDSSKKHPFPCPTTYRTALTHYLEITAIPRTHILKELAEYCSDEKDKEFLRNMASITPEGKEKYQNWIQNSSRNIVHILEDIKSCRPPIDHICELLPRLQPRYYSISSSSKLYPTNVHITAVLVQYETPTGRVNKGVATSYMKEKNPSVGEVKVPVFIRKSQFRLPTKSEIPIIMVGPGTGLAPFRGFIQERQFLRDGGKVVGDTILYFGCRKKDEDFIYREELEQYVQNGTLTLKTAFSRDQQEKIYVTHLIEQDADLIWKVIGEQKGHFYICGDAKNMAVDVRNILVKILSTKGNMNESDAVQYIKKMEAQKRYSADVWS", "experiment": "HPLC substrate depletion, P450/CPR Sf9 microsomes", "format": "biochemical", "conditions": "0.2 µM P450, NADPH-regenerating system, 0.25 mM MgCl2, pH 7.4, 30 °C, 120 min"}, "[2]": {"target": "T2, CYP6A36 (Musca domestica, UniProt Q06S82)", "T2 construct": "full length, co-expressed with house fly CPR (MOI 10:1) by baculovirus in Sf9 cells; microsomes; with NADPH--cytochrome P450 reductase", "T2 sequence (Q06S82 1-507)": "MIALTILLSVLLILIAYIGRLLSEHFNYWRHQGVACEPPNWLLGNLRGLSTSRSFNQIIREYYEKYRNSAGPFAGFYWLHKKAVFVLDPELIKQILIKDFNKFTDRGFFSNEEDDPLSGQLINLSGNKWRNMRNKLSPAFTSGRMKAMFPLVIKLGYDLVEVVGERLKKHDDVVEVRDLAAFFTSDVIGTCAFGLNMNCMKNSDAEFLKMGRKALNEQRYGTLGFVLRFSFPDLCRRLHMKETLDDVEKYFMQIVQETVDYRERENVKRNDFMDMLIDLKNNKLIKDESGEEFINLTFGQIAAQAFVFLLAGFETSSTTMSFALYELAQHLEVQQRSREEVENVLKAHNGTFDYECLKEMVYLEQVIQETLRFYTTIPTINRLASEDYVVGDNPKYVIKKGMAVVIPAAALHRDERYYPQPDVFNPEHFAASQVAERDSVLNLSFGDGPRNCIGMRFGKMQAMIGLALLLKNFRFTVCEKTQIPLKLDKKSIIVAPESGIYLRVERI", "T2 sequence (Q07994 1-671 partner)": "T1 sequence (Q07994 1-671 partner)", "experiment": "HPLC substrate depletion, P450/CPR Sf9 microsomes", "format": "biochemical", "conditions": "20 µM cis/trans permethrin mixture, 0.2 µM P450, NADPH-regenerating system, 0.25 mM MgCl2, pH 7.4, 30 °C, 120 min"}},
  "data": [
    {"smiles": "OCc1cccc(Oc2ccccc2)c1", "note": "[PBalc]", "values": [
      {"measurement": "HPLC substrate depletion, P450/CPR Sf9 microsomes", "setting": "[1]; 20 µM PBalc", "value": "CYP4S24 exhibiting the highest ability to metabolize both PBalc and PBald"}
    ]},
    {"smiles": "O=Cc1cccc(Oc2ccccc2)c1", "note": "[PBald]", "values": [
      {"measurement": "HPLC substrate depletion, P450/CPR Sf9 microsomes", "setting": "[1]; 20 µM PBald", "value": "CYP4S24 exhibiting the highest ability to metabolize both PBalc and PBald"}
    ]},
    {"smiles": "CC1(C)C(C=C(Cl)Cl)C1C(=O)OCc1cccc(Oc2ccccc2)c1", "note": "(stereo not drawn) [trans-permethrin]", "values": [
      {"measurement": "HPLC substrate depletion, P450/CPR Sf9 microsomes", "setting": "[2]", "value": "CYP6A36 showed the highest activity toward both trans- and cis-permethrin"}
    ]}
  ]
}
